Source: patent US12527782B2, “Use of hexokinase 2/mitochondria-detaching compounds for treating hexokinase-2 (HK2)-expressing cancers” (Vidac Pharma Ltd., priority 2016, dated 2026)
“Also recorded” adds a separate entry of the source.

How the values were obtained:
[1] = tested on: Cutanous T cell lymphoma MyLa; assay: CFA, MyLa; assay type: cell-based, human; details: Cell line/CFA
Protocol: (§1) CFA was performed by Charles River Laboratories (Freiburg, Germany) in 96-well plate format according to a modified two-layer soft agar assay. The origin of the tumor xenografts has been described (Fiebig et al. 1989, incorporated herein by reference). The list of tumors used in this study is detailed in Table 1.

Melanoma MEXF 535 = assay: CFA, MEXF 535; assay type: cell-based, human; details: PDX/CFA
Protocol: as §1

Liver (HCC) LIXFH Hep G2 = assay: CFA, LIXFH Hep G2; assay type: cell-based, human; details: Cell line/CFA
Protocol: as §1

[2] = tested on: Leukemia (AML) LEXFAM MV4-11; assay: CFA, LEXFAM MV4-11; assay type: cell-based, human; details: Cell line/CFA
Protocol: as §1

[3] = tested on: Lymphoma (Non-Hodgkin) LYXFNH U-937; assay: CFA, LYXFNH U-937; assay type: cell-based, human; details: Cell line/CFA
Protocol: as §1

[4] = tested on: Leukemia (AML) LEXFAM KG-1; assay: CFA, LEXFAM KG-1; assay type: cell-based, human; details: Cell line/CFA
Protocol: as §1

[5] = tested on: Leukemia (ALL) LEXFAL MOLT-4; assay: CFA, LEXFAL MOLT-4; assay type: cell-based, human; details: Cell line/CFA
Protocol: as §1

[6] = tested on: Lung (NSCLC, adeno) LXFA 629; assay: CFA, LXFA 629; assay type: cell-based, human; details: PDX/CFA
Protocol: as §1

[7] = tested on: panel of 57 patient-derived tumors and cancer cell lines; assay: CFA panel of 57 patient-derived tumors and cancer cell lines; assay type: cell-based, human
Protocol: as §1

[8] = tested on: Lung (NSCLC, adeno) LXFA 1041; assay: CFA, LXFA 1041; assay type: cell-based, human; details: PDX/CFA
Protocol: as §1

Stomach GXF 97 = assay: CFA, GXF 97; assay type: cell-based, human; details: PDX/CFA
Protocol: as §1

[9] = tested on: HT-297.T Actinic keratosis cells; assay: XTT cell viability assay, HT-297.T; assay type: cell-based, human; details: Actinic keratosis HT-297.T; Cell line/XTT; 72 hr
Protocol: A431 (human skin SCC), HT-297.T (human AK), and HaCaT transformed normal keratinocyte cell lines were from ATCC (Manassas, VA) and were maintained in DMEM supplemented with 10% FCS, 4 mM L-Gln, 1 mM sodium pyruvate, 100 U/mL penicillin, 1 μg/mL streptomycin. Human HK1 and HK2 plasmids were purchased from Addgene (Cambridge, MA) and were purified from E. Coli. VDAC1 was purified from sheep liver mitochondria as described (Arbel et al. 2012, incorporated herein by reference). Human skin tissue microarray (SK208 and SK 805) were purchased from US Biomax Inc. (Rockville, MD).
For XTT assays, cells were plated in 96-well plates (5,000 cells per well) for 24 hours. Cells were then incubated with different concentrations of Formula C in triplicates for 72 hr in DMEM supplemented with 0.5% FCS and 5 mM Glucose. Cell viability was evaluated using 2,3-bis-(2-methoxy-4-nitro-5-sulfophenyl)-2H-tetrazolium-5-carboxanilide (XTT)-based colorimetric assay kit (Biological Industries Ltd., Kibbutz Beit-Haemek, Israel). The optical density was measured by an Infinite 200 ELISA reader at 450 nm and reference was measured at 630 nm (Tecan, Männedorf, Switzerland).

Skin SCC VXF A-431 = assay: CFA, VXF A-431; assay type: cell-based, human; details: Cell line/CFA
Protocol: as §1

Lung (SCLC) LXFS 2156 = assay: CFA, LXFS 2156; assay type: cell-based, human; details: PDX/CFA
Protocol: as §1

[10] = tested on: AK/cSCC mouse model of chronic UVB exposure; assay: AK/cSCC mouse model of chronic UVB exposure: histopathology and IHC of epidermis; assay type: in vivo; details: for HK2 protein levels in AK areas (IHC): 5% Formula C
Protocol: The formulation ingredients for vehicle, 2.5%, and 5% Formula C ointment consisted of: 32% Gelucire44/14® (Gattefosse, Saint-Priest, France), and 68% combined Labrasol® (Gattefosse, Saint-Priest, France) with corresponding amount of Formula C (w/w). New ointments were prepared every 2 weeks. The 40% topical solution was prepared just prior to use by mixing (w/w) 60% propylene glycol (Sigma, St. Louis, MO, USA) with 40% Formula C.
Histopathological analysis and IHC was performed according to standard protocols. Primary antibodies used: rabbit anti-HK1 and rabbit anti-HK2 (C35C4 and C64G5, CST, Danvers, MA), rabbit anti cleaved caspase 3 (PP229, Biocare Medical, Concord, CA), Secondary antibody was goat anti-Rabbit IgG(H+L) (474-1506, KPL, Gaithersburg, MD). Rabbit anti-CD3 (SP7), rabbit anti-F4/80 (SB-M3072, SB-M4152, Nordic Biosite, Taby, Sweden), mouse anti-Langerin/CD207 (DDX0361, Dendritics, Lyon, France). For these three primary antibodies, a polymer system was used as a secondary antibody (KDB-10046 and KDB-10007, Nordic Biosite, Taby, Sweden). Semi-quantitative analysis was done in a blinded manner by a single experienced pathologist scoring ×40 high power fields, 7 different fields per slide.
The effect of Formula C on cell proliferation and apoptosis was tested in an AK/cSCC mouse model of chronic UVB exposure. Forty-eight SKH-1 hairless female mice were chronically exposed to UVB radiation for 16 weeks. By that time, more than 60% of the animals had developed at least one SCC lesion. Three days after the final irradiation dose, the mice were randomly assigned to 1 of 4 treatment groups (N=12 mice/group) and a 50-day treatment phase started. Treatment groups included: vehicle, 2.5% or 5% Formula C ointment applied once-daily for 50 days, or 40% Formula C topical solution applied once-daily for the first 5 days of every three-week cycle (total of three treatment cycles).

[11] = tested on: Lung (NSCLC, adeno) LXFA 1012; assay: CFA, LXFA 1012; assay type: cell-based, human; details: PDX/CFA
Protocol: as §1

`CC/C=C\CC1C(=O)CCC1CC(=O)Oc1cccc2cccnc12` (stereo not drawn) [Formula C] was tested, and the IC50 [1] was < 1000 nM, the IC50 (Melanoma MEXF 535) was 538 nM and the IC50 (Liver (HCC) LIXFH Hep G2) was 5200 nM. It also gave an IC50 [2] of 1200 nM, an IC50 [3] of 1280 nM and an IC50 [4] of 1160 nM. The IC50 [5] was 2280 nM, the IC50 [6] was 1380 nM and the “share of tested cancer types with strong anti-proliferation effect (IC50<2 uM)” value [7] was 70%. The IC50 [8] was 1500 nM, the IC50 (Stomach GXF 97) was 6450 nM and the IC50 [9] was 228 nM. The IC50 (Skin SCC VXF A-431) was 364 nM, the IC50 (Lung (SCLC) LXFS 2156) was 3560 nM and the “cleaved caspase-3 positive cells (IHC), apoptosis in epidermis” value ([10]; UVB-exposed SKH-1 mice, Day 50) was “induces apoptosis; also recorded: statistically significant induction of apoptosis”. The “mitotic index in AK regions of the skin (epidermis)” value ([10]; UVB-exposed SKH-1 mice, Day 50, all Formula C treatment groups vs vehicle) was “reduces cell proliferation; also recorded: significantly reduced”, the “epidermal thickness (histopathology)” value ([10]; UVB-exposed SKH-1 mice, topical treatment, data not shown) was “thinner epidermis” and the “HK2 staining in epidermis (IHC)” value ([10]; UVB-exposed mice, 5% Formula C ointment, 50 days of treatment) was “decreases after 50 days; also recorded: HK2 staining levels are low”. For the same molecule, the “HK2 protein levels in AK areas (IHC)” value ([10]; UVB-exposed mice, 2 days of treatment, satellite study) was “dramatic decrease in HK2 protein levels”, the “HK2 protein levels in AK areas (IHC)” value ([10]; UVB-exposed mice, one day of treatment, data not shown) was “did not show this effect” and the IC50 [11] was 1360 nM.
